# Columns and labels:
# [1] = tested on: DU145 cells; test: Scatter assay in DU145 cells (HGF-stimulated); assay type: cell-based; conditions: Homo sapiens, DU-145, last dose that created an inhibitory effect on scattering, 24 h, read-out: DU145 SCATT. INHIB IC50
# Protocol: Scatter assays in DU145. The scatter assay is performed as described previously (Miura H, Nishimura K, Tsujimura A, Matsumiya K, Matsumoto K, Nakamura T, et al. Effects of hepatocyte growth factor on E-cadherin-mediated cell-cell adhesion in DU145 prostate cancer cells. Urology 2001; 58(6):1064-9) for DU145 prostate carcinoma cells with the indicated modifications. In brief, DU145 cells (ATCC) are seeded in 24-well plates at a density of 7×10^3 cells/well in MEM medium complemented with 10% FBS and cultured for 48 h, to allow the formation of small compact colonies of cells. Inhibitors are subsequently added at a range of doses (0.00032-10 uM) for 3 h. Cells are then stimulated to migrate by the addition of HGF (in the form of conditioned medium from 293T cells over-expressing the human HGF gene) and the culture is continued for another 24 h. The IC50 values is defined as the last dose that created an inhibitory effect on scattering. For the purpose of standardization a control is carried on every test plates for the DU145 scattering assays.
# [2] = target: T1, VEGF receptor KDR (Homo sapiens, UniProt P35968); test: In vitro receptor tyrosine kinase assay (DELFIA), VEGF receptor KDR; assay type: biochemical; conditions: GST-VEGFR2 806-1356, 0.6 uM ATP; read-out: VEGFR IC50
# T1 construct: made in house; host or cells: Sf9 cells (Spodoptera frugiperda), baculovirus
# T1 sequence (P35968 806-1356): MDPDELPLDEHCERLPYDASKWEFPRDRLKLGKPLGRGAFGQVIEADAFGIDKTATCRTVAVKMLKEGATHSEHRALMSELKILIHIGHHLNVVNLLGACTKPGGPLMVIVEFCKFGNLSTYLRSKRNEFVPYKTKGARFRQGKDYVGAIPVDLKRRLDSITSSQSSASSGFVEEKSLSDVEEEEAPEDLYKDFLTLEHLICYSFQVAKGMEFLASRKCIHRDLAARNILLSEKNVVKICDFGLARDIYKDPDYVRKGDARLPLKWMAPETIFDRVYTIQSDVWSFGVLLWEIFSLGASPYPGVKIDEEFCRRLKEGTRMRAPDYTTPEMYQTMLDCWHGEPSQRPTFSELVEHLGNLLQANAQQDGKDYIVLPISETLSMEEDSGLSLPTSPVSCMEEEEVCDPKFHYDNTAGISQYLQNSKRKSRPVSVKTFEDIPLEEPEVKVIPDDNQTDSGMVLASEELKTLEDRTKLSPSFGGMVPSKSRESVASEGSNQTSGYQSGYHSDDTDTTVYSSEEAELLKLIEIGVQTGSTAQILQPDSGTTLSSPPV
# Text: In the case of VEGF receptor KDR a 1.6-kb cDNA corresponding to the catalytic domain of VEGFR2 or KDR (Genbank accession number AF035121 amino acid 806 to 1356) is cloned into the Pst I site of the pDEST20 Gateway vector (Invitrogen) for the production of a GST-tagged version of that enzyme.
# The GST-VEGFR2806-1356 protein is expressed in Sf9 cells (Spodoptera frugiperda) upon infection with recombinant baculovirus construct.
# The supernatant is loaded onto a GST-agarose column (Sigma) equilibrated with PBS pH 7.3. Following a four column volume (CV) wash with PBS pH 7.3+1% Triton X-100 and 4 CV wash with buffer B (50 mM Tris pH 8.0, 20% glycerol and 100 mM NaCl), bound proteins are step eluted with 5 CV of buffer B supplemented with 5 mM DTT and 15 mM glutathion. […] Final GST-VEGFR2806-1356 protein preparations concentrations are about 0.7 mg/ml with purity approximating 70%.
# [3] = target: recombinant human c-Met/HGF receptor (Homo sapiens, UniProt P08581); test: In vitro receptor tyrosine kinase assay (DELFIA), c-Met/HGF receptor
# Chain of recombinant human c-Met/HGF receptor (P08581 1078-1337): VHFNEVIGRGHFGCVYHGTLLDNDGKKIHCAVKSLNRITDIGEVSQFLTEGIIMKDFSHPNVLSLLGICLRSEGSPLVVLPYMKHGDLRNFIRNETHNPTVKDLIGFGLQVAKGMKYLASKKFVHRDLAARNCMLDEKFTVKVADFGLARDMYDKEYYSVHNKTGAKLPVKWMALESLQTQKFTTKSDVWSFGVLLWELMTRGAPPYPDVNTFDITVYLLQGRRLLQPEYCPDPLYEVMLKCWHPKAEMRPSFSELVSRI
# [4] = tested on: A549 cells; test: Wound healing assay in A549 cells (HGF-stimulated); assay type: cell-based; conditions: Homo sapiens, last dose that inhibited gap closing by more than 25%, 24 h, read-out: A549 WOUND_HEALING IC50
# Protocol: Wound healing assay in A549 cells. A549 cells (ATCC) are seeded in DMEM low glucose medium complemented with 10% FBS into 24-well plates at a density of 7.5×10^4 cells/well and grown to confluence (48 h). Inhibitors were added to the medium at a range of doses (0.00032-10 uM) for 3 h at which point a gap is introduced by scraping cells with a P1000 pipette tip. Cells are then stimulated to migrate by the addition of HGF (in the form of conditioned medium from 293T cells over-expressing the human HGF gene) and the culture is continued for 24 h. […] For the purpose of standardization, a control is carried on every assay plates.
# [5] = target: T2, c-Met (Homo sapiens, UniProt P08581); test: Inhibition of c-Met phosphorylation in MKN45 cells (direct ELISA); assay type: cell-based; conditions: 3 h treatment, read-out: CMET ELISA IN MKN45 IC50
# T2 construct: endogenous in cells; host or cells: MKN45 gastric carcinoma cells
# T2 sequence (P08581 25-1390): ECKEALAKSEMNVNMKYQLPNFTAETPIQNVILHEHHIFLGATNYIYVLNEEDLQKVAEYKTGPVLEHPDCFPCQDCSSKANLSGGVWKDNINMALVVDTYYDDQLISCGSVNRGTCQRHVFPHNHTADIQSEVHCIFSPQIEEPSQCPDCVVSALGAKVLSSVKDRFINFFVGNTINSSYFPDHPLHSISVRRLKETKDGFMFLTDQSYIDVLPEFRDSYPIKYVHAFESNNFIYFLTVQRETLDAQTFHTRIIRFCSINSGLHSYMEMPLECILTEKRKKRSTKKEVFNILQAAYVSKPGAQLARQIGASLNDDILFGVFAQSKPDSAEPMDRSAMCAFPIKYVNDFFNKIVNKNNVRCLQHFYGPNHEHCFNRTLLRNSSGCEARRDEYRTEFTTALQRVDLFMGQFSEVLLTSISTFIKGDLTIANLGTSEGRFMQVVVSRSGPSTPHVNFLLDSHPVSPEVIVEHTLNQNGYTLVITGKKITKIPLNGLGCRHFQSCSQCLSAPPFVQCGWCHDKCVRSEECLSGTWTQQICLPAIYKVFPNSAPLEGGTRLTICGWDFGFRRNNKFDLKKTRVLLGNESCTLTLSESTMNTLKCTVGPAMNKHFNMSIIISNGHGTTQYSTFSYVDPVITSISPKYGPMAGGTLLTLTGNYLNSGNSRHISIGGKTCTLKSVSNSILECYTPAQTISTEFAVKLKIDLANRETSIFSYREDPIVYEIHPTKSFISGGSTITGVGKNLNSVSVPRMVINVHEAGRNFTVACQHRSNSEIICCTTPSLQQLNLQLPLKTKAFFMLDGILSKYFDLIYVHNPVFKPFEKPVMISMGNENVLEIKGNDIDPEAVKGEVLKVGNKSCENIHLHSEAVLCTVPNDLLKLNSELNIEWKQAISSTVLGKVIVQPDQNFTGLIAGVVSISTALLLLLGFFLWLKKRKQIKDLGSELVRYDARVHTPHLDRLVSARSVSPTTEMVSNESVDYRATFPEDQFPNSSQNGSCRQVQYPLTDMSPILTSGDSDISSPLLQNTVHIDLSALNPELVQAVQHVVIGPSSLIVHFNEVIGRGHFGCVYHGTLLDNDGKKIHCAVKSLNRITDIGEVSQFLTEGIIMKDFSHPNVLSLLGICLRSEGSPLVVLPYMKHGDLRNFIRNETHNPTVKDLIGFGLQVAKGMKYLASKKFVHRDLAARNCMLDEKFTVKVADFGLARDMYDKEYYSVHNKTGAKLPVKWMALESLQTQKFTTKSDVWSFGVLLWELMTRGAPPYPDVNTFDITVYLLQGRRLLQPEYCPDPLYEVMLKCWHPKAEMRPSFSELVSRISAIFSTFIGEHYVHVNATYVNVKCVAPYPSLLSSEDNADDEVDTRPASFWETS
# Text: The following assay is used to determine inhibition of c-Met phosphorylation.
# The c-Met receptor is expressed in numerous cancer cell lines derived from tumors of epithelial origin. In MKN45 gastric carcinoma cells the c-Met gene is amplified, resulting in several-fold overexpression of the receptor and its constitutive activation. For this reason constitutively high levels of ERK1/2 are also detected in these cells, independently of HGF-added stimulation (Smolen G A, Sordella R, Muir B, Mohapatra G, Barmettler A, Archibald H, et al. Amplification of MET may identify a subset of cancers with extreme sensitivity to the selective tyrosine kinase inhibitor PHA-665752. Proc Natl Acad Sci USA 2006). We have developed a sensitive method to follow c-Met phosphorylation in these cells. In previous studies with earlier generation c-Met inhibitors, we established that the IC50s for the inhibition of c-Met phosphorylation were identical using this novel ELISA approach and standard western blot procedure, with antibodies directed against the activating autocatalysis tyrosine residues of c-MET (Tyr Y1230-34-35).
# Cell treatments: MKN45 cells are seeded into wells of 96-well plates at a density of 3×10^4 cells/well in RPMI medium supplemented with 10% FBS. HA-TPR-RON expressing 293T (clone 18) cells are seeded into wells of 96-well plates at a density of 3×10^4 cells/well in DMEM medium supplemented with 10% FBS. Cells are grown for 48 h prior to treatments with compounds of interest. Inhibitors are added to the medium in triplicate wells at the indicated doses. After 3 h of treatment, media is aspirated and cells are lysed by one freeze-thaw cycle in 50 μL/well hypotonic lysis buffer (25 mM HEPES pH 7.5, 10 mM NaCl with 1 mM 4-(2-aminoethyl)benzenesulfonyl fluoride hydrochloride, 200 μM sodium orthovanadate, 1 mM sodium fluoride, 10 μg/mL of leupeptin, 10 μg/mL of aprotinin/mL, 1 μg/mL of pepstatin and 50 μg/mL Na-p-tosyl-L-lysine chloromethyl ketone hydrochloride.
# Detection of phosphorylated c-Met by direct ELISA: Lysate samples (5 μL) from wells of treatment plates are transferred to 80 μL of binding buffer (25 mM HEPES pH 7.5, 200 mM NaCl) in wells of high binding white polysterene 96-well plates (Corning). After an overnight protein binding incubation at 4° C., lysates are aspirated and wells are blocked for 1 h at 37° C. in TBST supplemented with 5% BSA. Plates are incubated with the primary antibodies anti-phospho-Tyrosine (Millipore, 4G10) diluted 1/15000 in TBST supplemented with 5% BSA for 1 h at room temperature. Plates are washed 3 times on a plate washer (SkanWasher, Molecular Devises), and incubated with the reporter antibody […] (Sigma) diluted 1/15000 in TBST supplemented with 5% BSA, for 1 h at room temperature. Plates are washed 3 times with TBST using on a plate washer and subsequently incubated with chemiluminescent substrate solution (ECL, Roche). Luminescence signal is captured on a Polar Star Optima apparatus (BMG LabTech).
# Average values of the triplicate samples are used to prepare IC50 curves using a 4-parameter fit model. These curves are calculated using, for example, GraFit 5.0 software. For assay standardization purpose, an internal control is included on each experimental test plate.
Compound,IC50 [1],IC50 [2],IC50 [3],IC50 [4],IC50 [5]
COCCNCCC(=O)N1CC=C(c2cc3nccc(Oc4ccc(NC(=O)CC(=O)N(C)c5ccccc5)cc4F)c3s2)CC1,< 250 nM,< 250 nM,< 250 nM,250 to 500 nM,< 250 nM
CS(=O)(=O)CCNCc1cccc(-c2cc3nccc(Oc4ccc(NC(=S)NC(=O)Cc5ccccc5)cc4F)c3s2)c1,> 1000 nM,< 250 nM,< 250 nM,> 1000 nM,< 250 nM
COCCNCc1ccc(-c2cc3nccc(Oc4ccc(NC(=S)NC(=O)Cc5ccccc5F)cc4F)c3s2)cc1,250 to 500 nM,< 250 nM,< 250 nM,250 to 500 nM,< 250 nM
COCCNCc1cccc(-c2cc3nccc(Oc4ccc(NC(=S)NC(=O)Cc5ccccc5)cc4F)c3s2)n1,< 250 nM,< 250 nM,< 250 nM,< 250 nM,< 250 nM
COCCNCc1cccc(-c2cc3nccc(Oc4ccc(NC(=O)CC(=O)Nc5ccccc5)cc4F)c3s2)c1,250 to 500 nM,< 250 nM,< 250 nM,250 to 500 nM,250 to 500 nM
O=C(Nc1ccccc1)C1(C(=O)Nc2ccc(Oc3ccnc4cc(-c5ccc(CNC6CC6)cc5)sc34)c(F)c2)CC1,< 250 nM,< 250 nM,< 250 nM,250 to 500 nM,< 250 nM
COCCNCc1cccc(-c2cc3nccc(Oc4ccc(NC(=S)NC(=O)Cc5ccc(F)cc5)cc4F)c3s2)c1 [drawing 296],250 to 500 nM,< 250 nM,< 250 nM,250 to 500 nM,< 250 nM
COC[C@H](C)NCc1ccc(-c2cc3nccc(Oc4ccc(NC(=S)NC(=O)Cc5ccccc5)cc4F)c3s2)cc1,250 to 500 nM,< 250 nM,< 250 nM,250 to 500 nM,250 to 500 nM
COCCNCc1cccc(-c2cc3nccc(Oc4ccc(NC(=O)NC5CC5)cc4F)c3s2)n1,–,250 to 500 nM,250 to 500 nM,–,–
COCCNCc1cccc(-c2cc3nccc(Oc4ccc(NC(=O)Nc5cc(C(F)(F)F)ccc5F)cc4F)c3s2)n1,–,< 250 nM,< 250 nM,–,–
CS(=O)(=O)CCNCc1ccc(-c2cc3nccc(Oc4ccc(NC(=O)C5(C(=O)Nc6ccccc6)CC5)cc4F)c3s2)cc1 [drawing 340],< 250 nM,< 250 nM,< 250 nM,< 250 nM,< 250 nM
COCCNCc1ccc(-c2cc3nccc(Oc4ccc(NC(=O)CC(=O)Nc5ccccc5)cc4F)c3s2)nc1,< 250 nM,< 250 nM,< 250 nM,< 250 nM,< 250 nM
COCCNCc1ccc(-c2cc3nccc(Oc4ccc(NC(=O)C5(C(=O)Nc6ccccc6OC)CC5)cc4F)c3s2)cc1,250 to 500 nM,< 250 nM,< 250 nM,250 to 500 nM,500 to 1000 nM
COCCNCCn1cnc(-c2cc3nccc(Oc4ccc(NC(=S)NC(=O)Cc5ccccc5)cc4F)c3s2)c1,< 250 nM,< 250 nM,< 250 nM,< 250 nM,< 250 nM
COCCNCCc1cccc(-c2cc3nccc(Oc4ccc(NC(=O)C5(C(=O)Nc6ccccc6)CC5)cc4F)c3s2)c1,< 250 nM,< 250 nM,< 250 nM,< 250 nM,< 250 nM
COCCNCc1ccc(-c2cc3nccc(Oc4ccc(NC(=O)NC(=O)Cc5ccccc5OC)cc4F)c3s2)cc1,> 1000 nM,< 250 nM,< 250 nM,500 to 1000 nM,500 to 1000 nM
COCCNCCn1cc(-c2cc3nccc(Oc4ccc(NC(=O)CC(=O)N(C)c5ccccc5)cc4F)c3s2)cn1 [drawing 334],250 to 500 nM,< 250 nM,< 250 nM,< 250 nM,< 250 nM
CSCCNCc1ccc(-c2cc3nccc(Oc4ccc(NC(=S)NC(=O)Cc5ccc(F)cc5)cc4F)c3s2)cc1,250 to 500 nM,< 250 nM,< 250 nM,> 1000 nM,< 250 nM
COCCNCc1ccc(-c2cc3nccc(Oc4ccc(NC(=O)C5(C(=O)Nc6ccccc6)CC5)cc4F)c3s2)nc1 [drawing 350],< 250 nM,< 250 nM,< 250 nM,< 250 nM,< 250 nM
COCCNCc1ccc(-c2cc3nccc(Oc4ccc(NC(=O)C5(C(=O)Nc6ccc(F)cc6)CC5)cc4F)c3s2)nc1 [drawing 354],< 250 nM,< 250 nM,–,< 250 nM,–
COCCNCCn1cc(-c2cc3nccc(Oc4ccc(NC(=O)C5(C(=O)Nc6ccc(F)cc6)CC5)cc4F)c3s2)cn1,< 250 nM,< 250 nM,< 250 nM,< 250 nM,< 250 nM
COCCNCCn1cc(-c2cc3nccc(Oc4ccc(NC(=S)NC(=O)Cc5ccccc5)cc4F)c3s2)cn1 [drawing 321],250 to 500 nM,< 250 nM,< 250 nM,250 to 500 nM,< 250 nM
COCCN(Cc1cnc(-c2cc3nccc(Oc4ccc(NC(=O)NC5CC5)cc4F)c3s2)n1C)C(=O)OCc1ccccc1,–,–,> 1000 nM,–,–
COCCNCc1cnc(-c2cc3nccc(Oc4ccc(NC(=O)Nc5cc(C)on5)cc4F)c3s2)n1C,–,< 250 nM,–,–,–
COCCNCc1cnc(-c2cc3nccc(Oc4ccc(NC(=O)NC5CC5)cc4F)c3s2)n1C,–,< 250 nM,250 to 500 nM,–,–
